Data as given in patent US9351989B2, “Substituted purine nucleosides, phosphoroamidate and phosphorodiamidate derivatives for treatment of viral infections” (INHIBITEX, INC., priority 2010, dated 2016).

Key:
[1] = test system: HCV replicon (Genotype 1b); assay: Luciferase genotype 1b replicon potency assay; type: cell-based; conditions: Hepatitis C virus, Huh-7; luciferase-reporter genotype 1b subgenomic replicon cell line (Huh7); Renilla luciferase reporter activity
Protocol: (§1) Further to the above Examples, representative compounds, prepared according to the examples were tested for potency in an HCV replicon assay (Genotype 1b) for activity against the virus (EC50) and toxicity to the cells (CC50).
Huh7 Replicon Cell Lines and Cell Culture Conditions:
(§2) A luciferase-reporter genotype 1b subgenomic replicon cell line, and a genotype 1a full-length replicon cell line were obtained from Apath, LLC, Brooklyn, N.Y.: All cell lines were passaged twice a week by splitting 4 or 6 fold. Cells were maintained in DMEM-high glucose medium (HyClone, Logan, Utah) supplemented with 9% FBS (HyClone), 2 mM glutamine (Invitrogen, Carlsbad, Calif.), 100 U/mL PenStrep (Invitrogen). Media also contained 0.25 mg/mL of the antibiotic G-418 to maintain stable expression of the replicon (Invitrogen). Incubation was performed at 37° C. in 5% CO2 atmosphere. Replicon cell lines were used until they accumulated 15-to-18 passages, after which cells were restarted from the frozen stock. Seeding cell counts were routinely determined using an automatic Cedex HiRes cell counter (Flownomics Analytical Instruments, Madison, Wis.) or manually using INCYTO C—Chip™ Disposable Hemacytometers (Fisher Scientific, Pittsburgh, Pa.).
The anti-HCV assays were done accordingly:
Luciferase Genotype 1b Replicon Potency Assay.
Replicon cells were seeded into white 96-well plates (Nunc/VWR) at a density of 2×10^4 cells/well in medium without G-418. A Stacker Multidrop Liquid Dispenser (MTX Lab Systems, Vienna, Va.) was employed to ensure uniform and fast cell seeding into multiple plates. 18-24 h after cell plating, inhibitors were added and cells were incubated for additional 24, 48, or 72 h (as indicated). Compounds were tested in triplicates and quadruplicates at 3× or 4× serial dilutions over a range of 0.0001-to-10 μM concentrations. HCV replication was monitored by Renilla luciferase reporter activity assay using Renilla luciferase reporter (Promega, Madison, Wis.) and a Veritas Luminometer (Turner Biosystems, Sunnyvale, Calif.). 50% and 90% inhibitory concentration (IC50 and IC90) values were calculated as the concentration of compound that results correspondingly in 50% and 90% decreases in the reporter expression as compared to untreated cells. The values were determined by non-linear regression (four-parameter sigmoidal curve fitting) analysis.

[2] = Cytotoxicity assay (CellTiter-Glo); type: cell-based; conditions: human, toxicity to the cells, 72 h incubation, CellTiter-Glo cell viability
Protocol: as §1, §2
The cell cytotoxicity assay data was obtained as described below:
Cells were seeded into 96-well plates at a density of 2×10^4 cells per well. 24 h after cell plating, 11 serial 2× compound dilutions, starting with 100 μM, were applied to the testing plates (3 repeats per compound dilution). Each testing plate was run with a “no-compound” control. Incubation with compounds was continued at 37° C. in a CO2 incubator for 72 h. To determine cell viability, the CellTiter-Glo® assay (Promega, Madison, Wis.) was performed according to the manufacturer's protocol. The compound concentration resulting in 50% luminescent signal was reported as the CC50 concentration.

[3] = Huh7 HCV genotype 1b replicon cells

SMILES	IC50 [1] [µM]	CC50 at 72 h [2, 3] [µM]	CC50 at 72 h [2] [µM]
COc1nc(N)nc2c1nc(Br)n2[C@@H]1O[C@H](CO)[C@@H](O)[C@@]1(C)O [Example 5, (2R,3R,4R,5R)-2-(2-Amino-8-bromo-6-methoxy-9H-purin-9-yl)-5-(hydroxymethyl)-3-methyltetrahydrofuran-3,4-diol]	> 100	> 100	–
CCCCOC(=O)[C@H](C)NP(=O)(OC[C@H]1O[C@@H](n2c(I)nc3c(OC)nc(N)nc32)[C@](C)(O)[C@@H]1O)Oc1cccc2ccccc12 (stereo partly drawn) [Example 10, (2S)-Butyl 2-((((2R,3R,4R,5R)-5-(2-Amino-8-iodo-6-methoxy-9H-purin-9-yl)-3,4-dihydroxy-4-methyltetrahydrofuran-2-yl)methoxy)(naphthalen-1-yloxy)phosphorylamino)propanoate]	0.011	–	7.9
COc1nc(N)nc2c1nc(I)n2[C@@H]1O[C@H](COP(=O)(N[C@@H](C)C(=O)OCC(C)(C)C)N[C@@H](C)C(=O)OCC(C)(C)C)[C@@H](O)[C@@]1(C)O [Example 23, (2S,2′S)-Neopentyl 2,2′-((((2R,3R,4R,5R)-5-(2-Amino-8-iodo-6-methoxy-9H-purin-9-yl)-3,4-dihydroxy-4-methyltetrahydrofuran-2-yl)methoxy)phosphoryl)bis(azanediyl)dipropanoate]	0.11	53	–
COc1nc(N)nc2c1nc(I)n2[C@@H]1O[C@H](COP(=O)(N[C@@H](C)C(=O)OCc2ccc(F)cc2F)Oc2cccc3ccccc23)[C@@H](O)[C@@]1(C)O (stereo partly drawn) [Example 8, (2S)-2,4-Difluorobenzyl 2-((((2R,3R,4R,5R)-5-(2-Amino-8-iodo-6-methoxy-9H-purin-9-yl)-3,4-dihydroxy-4-methyltetrahydrofuran-2-yl)methoxy)(naphthalen-1-yloxy)phosphorylamino)propanoate]	0.009	–	8.1
COc1nc(N)nc2c1nc(Cl)n2[C@@H]1O[C@H](CO)[C@@H](O)[C@@]1(C)O [Example 6, (2R,3R,4R,5R)-2-(2-Amino-8-chloro-6-methoxy-9H-purin-9-yl)-5-(hydroxymethyl)-3-methyltetrahydrofuran-3,4-diol]	> 100	> 100	–
CCCCCOC(=O)[C@H](C)NP(=O)(OC[C@H]1O[C@@H](n2c(I)nc3c(OC)nc(N)nc32)[C@](C)(O)[C@@H]1O)Oc1cccc2ccccc12 (stereo partly drawn) [Example 11, (2S)-Pentyl 2-((((2R,3R,4R,5R)-5-(2-Amino-8-iodo-6-methoxy-9H-purin-9-yl)-3,4-dihydroxy-4-methyltetrahydrofuran-2-yl)methoxy)(naphthalen-1-yloxy)phosphorylamino)propanoate]	0.012	–	11
COc1nc(N)nc2c1nc(I)n2[C@@H]1O[C@H](COP(=O)(N[C@@H](C)C(=O)OC2CCC2)Oc2cccc3ccccc23)[C@@H](O)[C@@]1(C)O (stereo partly drawn) [Example 15, (2S)-Cyclobutyl 2-((((2R,3R,4R,5R)-5-(2-Amino-8-iodo-6-methoxy-9H-purin-9-yl)-3,4-dihydroxy-4-methyltetrahydrofuran-2-yl)methoxy)(naphthalen-1-yloxy)phosphorylamino)propanoate]	0.01	–	6.8
COc1nc(N)nc2c1nc(Cl)n2[C@@H]1O[C@H](COP(=O)(N[C@@H](C)C(=O)OCC(C)(C)C)N[C@@H](C)C(=O)OCC(C)(C)C)[C@@H](O)[C@@]1(C)O [Example 25, (2S,2′S)-Neopentyl 2,2′-((((2R,3R,4R,5R)-5-(2-Amino-8-chloro-6-methoxy-9H-purin-9-yl)-3,4-dihydroxy-4-methyltetrahydrofuran-2-yl)methoxy)phosphoryl)bis(azanediyl)dipropanoate]	10	> 100	–
COc1nc(N)nc2c1nc(I)n2[C@@H]1O[C@H](COP(=O)(N[C@H](C(=O)OCc2ccccc2)C(C)C)Oc2cccc3ccccc23)[C@@H](O)[C@@]1(C)O (stereo partly drawn) [Example 20, (2S)-Benzyl 2-((((2R,3R,4R,5R)-5-(2-Amino-8-iodo-6-methoxy-9H-purin-9-yl)-3,4-dihydroxy-4-methyltetrahydrofuran-2-yl)methoxy)(naphthalen-1-yloxy)phosphorylamino)-3-methylbutanoate]	0.14	–	25
COc1nc(N)nc2c1nc(I)n2[C@@H]1O[C@H](COP(=O)(N[C@@H](C)C(=O)OCC(C)(C)C)Oc2cccc3ccccc23)[C@@H](O)[C@@]1(C)O (stereo partly drawn) [Example 12, (2S)-Neopentyl 2-((((2R,3R,4R,5R)-5-(2-Amino-8-iodo-6-methoxy-9H-purin-9-yl)-3,4-dihydroxy-4-methyltetrahydrofuran-2-yl)methoxy)(naphthalen-1-yloxy)phosphorylamino)propanoate]	0.02	–	14
COc1nc(N)nc2c1nc(Cl)n2[C@@H]1O[C@H](COP(=O)(N[C@@H](C)C(=O)OCC(C)(C)C)Oc2cccc3ccccc23)[C@@H](O)[C@@]1(C)O (stereo partly drawn) [Example 14, (2S)-Neopentyl 2-((((2R,3R,4R,5R)-5-(2-Amino-8-chloro-6-methoxy-9H-purin-9-yl)-3,4-dihydroxy-4-methyltetrahydrofuran-2-yl)methoxy)(naphthalen-1-yloxy)phosphorylamino)propanoate]	> 10	–	60
COc1nc(N)nc2c1nc(Br)n2[C@@H]1O[C@H](COP(=O)(N[C@@H](C)C(=O)OCC(C)(C)C)N[C@@H](C)C(=O)OCC(C)(C)C)[C@@H](O)[C@@]1(C)O [Example 24, (2S,2′S)-Neopentyl 2,2′-((((2R,3R,4R,5R)-5-(2-Amino-8-bromo-6-methoxy-9H-purin-9-yl)-3,4-dihydroxy-4-methyltetrahydrofuran-2-yl)methoxy)phosphoryl)bis(azanediyl)dipropanoate]	> 40	> 100	–
COc1nc(N)nc2c1nc(I)n2[C@@H]1O[C@H](COP(=O)(N[C@@H](CCSC)C(=O)OCc2ccccc2)Oc2cccc3ccccc23)[C@@H](O)[C@@]1(C)O (stereo partly drawn) [Example 19, (2S)-Benzyl 2-((((2R,3R,4R,5R)-5-(2-Amino-8-iodo-6-methoxy-9H-purin-9-yl)-3,4-dihydroxy-4-methyltetrahydrofuran-2-yl)methoxy)(naphthalen-1-yloxy)phosphorylamino)-4-(methylthio)butanoate]	0.034	–	29
COc1nc(N)nc2c1nc(I)n2[C@@H]1O[C@H](COP(=O)(N[C@@H](C)C(=O)OC2CCOCC2)Oc2cccc3ccccc23)[C@@H](O)[C@@]1(C)O (stereo partly drawn) [Example 18, (2S)-Tetrahydro-2H-pyran-4-yl 2-((((2R,3R,4R,5R)-5-(2-Amino-8-iodo-6-methoxy-9H-purin-9-yl)-3,4-dihydroxy-4-methyltetrahydrofuran-2-yl)methoxy)(naphthalen-1-yloxy)phosphorylamino)propanoate]	0.018	–	26
COc1nc(N)nc2c1nc(I)n2[C@@H]1O[C@H](COP(=O)(N[C@@H](C)C(=O)OCc2ccccc2)Oc2cccc3ccccc23)[C@@H](O)[C@@]1(C)O (stereo partly shown) [Example 7]	0.031	–	18
COc1nc(N)nc2c1nc(I)n2[C@@H]1O[C@H](COP(=O)(N[C@@H](C)C(=O)OC2CCCCC2)N[C@@H](C)C(=O)OC2CCCCC2)[C@@H](O)[C@@]1(C)O [Example 26, (2S,2′S)-Dicyclohexyl 2,2′-((((2R,3R,4R,5R)-5-(2-Amino-8-iodo-6-methoxy-9H-purin-9-yl)-3,4-dihydroxy-4-methyltetrahydrofuran-2-yl)methoxy)phosphoryl)bis(azanediyl)dipropanoate]	0.13	54	–
COc1nc(N)nc2c1nc(I)n2[C@@H]1O[C@H](CO)[C@@H](O)[C@@]1(C)O [Example 3, (2R,3R,4R,5R)-2-(2-Amino-8-iodo-6-methoxy-9H-purin-9-yl)-5-(hydroxymethyl)-3-methyltetrahydrofuran-3,4-diol]	6.1	> 100	–
